Test results as given in publication PMC8713283 (Journal of Medicinal Chemistry, 2021).
Where two headings read alike, the source gives them in different places.

Legend:
[1] = human
[2] = test system: P-gp (human MDR1); assay: in vitro; conditions: dog; for Papp B→A at 5 µM / Papp A→B at 5 µM: MDCK-MDR1; for efflux ratio at 5 µM: MDCK-MDR1, Efflux ratio B-A/A-B, MDCK-MDR1, 5 µM, N = 2
[3] = LPEester – LPEamide by amide–ester matched pairs
[4] = Log D(dec/w) shake flask partition coefficient; assay type: physicochemical; conditions: 1,9-decadiene and PBS pH 7.4 shake flask partition coefficient; for logD hydrocarbon water: 1,9-decadiene/PBS
[5] = target: T1, VHL (VCB, VHL:ElonginC:ElonginB) (Homo sapiens, UniProt P40337); assay: FP competition binding, binary binding to VHL
T1 construct: His6 (N, cleaved yes); made in house; host or cells: Escherichia coli

[6] = compound alone to VHL, FP competition with FAM-HIF-1α peptide, mean ± SEM, read-out: Kd binary
Throughout, for Plasma stability: time not given here.

| SMILES | Plasma stability [1] | Papp B→A at 5 µM [2] | ΔLPE [3] | logD hydrocarbon water [4] | Papp A→B at 5 µM [2] | efflux ratio at 5 µM [2] | Kd [5, 6] | LogD (dec/w) [4] | Kd [5] |
| --- | --- | --- | --- | --- | --- | --- | --- | --- | --- |
| Cc1ncsc1-c1ccc(CNC(=O)[C@@H]2C[C@@H](O)CN2C(=O)[C@@H](NC(=O)CCCCCOC(=O)CC23CC4CC(CC(C4)C2)C3)C(C)(C)C)cc1 [Compound 12, 6-(((S)-1-((2S,4R)-4-Hydroxy-2-((4-(4-methylthiazol-5-yl)benzyl)carbamoyl)pyrrolidin-1-yl)-3,3-dimethyl-1-oxobutan-2-yl)amino)-6-oxohexyl 2-(adamantan-1-yl)acetate] | 80 ± 11% | 4.5 ×10⁻⁶ cm/s | 1.8 | 2.4 |  |  |  |  |  |
| Cc1ncsc1-c1ccc(CNC(=O)[C@@H]2C[C@@H](O)CN2C(=O)[C@@H](NC(=O)CCCCCOC(=O)C2CCCCC2)C(C)(C)C)cc1 [Compound 11, 6-(((S)-1-((2S,4R)-4-Hydroxy-2-((4-(4-methylthiazol-5-yl)benzyl)carbamoyl)pyrrolidin-1-yl)-3,3-dimethyl-1-oxobutan-2-yl)amino)-6-oxohexyl cyclohexanecarboxylate] | 14 ± 1% | 35.6 ×10⁻⁶ cm/s | 1.8 | 1.1 | 0.3 ×10⁻⁶ cm/s | 142 |  |  |  |
| CCCCOc1ccc(-c2ccc(C(=O)NCCCCCC(=O)N[C@H](C(=O)N3C[C@H](O)C[C@H]3C(=O)NCc3ccc(-c4scnc4C)cc3)C(C)(C)C)cc2)cc1 [Compound 7, (2S,4R)-1-((S)-2-(6-(4′-Butoxy-[1,1′-biphenyl]-4-carboxamido)hexanamido)-3,3-dimethylbutanoyl)-4-hydroxy-N-(4-(4-methylthiazol-5-yl)benzyl)pyrrolidine-2-carboxamide] | 83 ± 14% | 0.2 ×10⁻⁶ cm/s |  | 1 |  |  |  |  |  |
| Cc1ncsc1-c1ccc(CNC(=O)[C@@H]2C[C@@H](O)CN2C(=O)[C@@H](NC(=O)CCCCCNC(=O)CC(c2ccccc2)c2ccccc2)C(C)(C)C)cc1 [Compound 6, (2S,4R)-1-((S)-2-(6-(3,3-Diphenylpropanamido)hexanamido)-3,3-dimethylbutanoyl)-4-hydroxy-N-(4-(4-methylthiazol-5-yl)benzyl)pyrrolidine-2-carboxamide] | 149 ± 9% | 18.5 ×10⁻⁶ cm/s |  | -0.3 | 0.1 ×10⁻⁶ cm/s | 133 |  |  |  |
| Cc1ncsc1-c1ccc(CNC(=O)[C@@H]2C[C@@H](O)CN2C(=O)[C@@H](NC(=O)CCCCCNC(=O)Cc2ccccc2)C(C)(C)C)cc1 [Compound 3, (2S,4R)-1-((S)-3,3-Dimethyl-2-(6-(2-phenylacetamido)hexanamido)butanoyl)-4-hydroxy-N-(4-(4-methylthiazol-5-yl)benzyl)pyrrolidine-2-carboxamide] | 130 ± 3% | 8.4 ×10⁻⁶ cm/s |  | -1.5 | 0.7 ×10⁻⁶ cm/s | 12 | 119 nM |  |  |
| Cc1ncsc1-c1ccc(CNC(=O)[C@@H]2C[C@@H](O)CN2C(=O)[C@@H](NC(=O)CCOCCOCCOCCOC(=O)Cc2ccccc2)C(C)(C)C)cc1 [Compound 20, (S)-14-((2S,4R)-4-Hydroxy-2-((4-(4-methylthiazol-5-yl)benzyl)carbamoyl)pyrrolidine-1-carbonyl)-15,15-dimethyl-12-oxo-3,6,9-trioxa-13-azahexadecyl 2-phenylacetate] |  |  |  |  |  |  | 144 nM |  |  |
| Cc1ncsc1-c1ccc(CNC(=O)[C@@H]2C[C@@H](O)CN2C(=O)[C@@H](NC(=O)CCOCCNC(=O)Cc2ccccc2)C(C)(C)C)cc1 [Compound 15, (2S,4R)-1-((S)-3,3-Dimethyl-2-(3-(2-(2-phenylacetamido)ethoxy)propanamido)butanoyl)-4-hydroxy-N-(4-(4-methylthiazol-5-yl)benzyl)pyrrolidine-2-carboxamide] | 103 ± 14% | 4.6 ×10⁻⁶ cm/s |  | -1.4 | 0.4 ×10⁻⁶ cm/s | 13 | 171 ± 14 nM |  |  |
| COCC(=O)NCCCCCC(=O)N[C@H](C(=O)N1C[C@H](O)C[C@H]1C(=O)NCc1ccc(-c2scnc2C)cc1)C(C)(C)C [Compound 1, (2S,4R)-4-Hydroxy-1-((S)-2-(6-(2-methoxyacetamido)hexanamido)-3,3-dimethylbutanoyl)-N-(4-(4-methylthiazol-5-yl)benzyl)pyrrolidine-2-carboxamide] | 126 ± 4% | 1.7 ×10⁻⁶ cm/s |  | -2.2 | 0.5 ×10⁻⁶ cm/s | 3 |  |  |  |
| CCCCOc1ccc(-c2ccc(C(=O)OCCCCCC(=O)N[C@H](C(=O)N3C[C@H](O)C[C@H]3C(=O)NCc3ccc(-c4scnc4C)cc3)C(C)(C)C)cc2)cc1 [Compound 14, 6-(((S)-1-((2S,4R)-4-Hydroxy-2-((4-(4-methylthiazol-5-yl)benzyl)carbamoyl)pyrrolidin-1-yl)-3,3-dimethyl-1-oxobutan-2-yl)amino)-6-oxohexyl 4′-butoxy-[1,1′-biphenyl]-4-carboxylate] | 119 ± 28% |  |  |  |  |  |  | BLD^h |  |
| Cc1ncsc1-c1ccc(CNC(=O)[C@@H]2C[C@@H](O)CN2C(=O)[C@@H](NC(=O)CCCCCNC(=O)C2CCCCC2)C(C)(C)C)cc1 [Compound 4, (2S,4R)-1-((S)-2-(6-(Cyclohexanecarboxamido)hexanamido)-3,3-dimethylbutanoyl)-4-hydroxy-N-(4-(4-methylthiazol-5-yl)benzyl)pyrrolidine-2-carboxamide] | 168 ± 20% | 10.3 ×10⁻⁶ cm/s |  | -1.4 | 0.3 ×10⁻⁶ cm/s | 33 |  |  |  |
| Cc1ncsc1-c1ccc(CNC(=O)[C@@H]2C[C@@H](O)CN2C(=O)[C@@H](NC(=O)CCOCCOC(=O)Cc2ccccc2)C(C)(C)C)cc1 [Compound 18, 2-(3-(((S)-1-((2S,4R)-4-Hydroxy-2-((4-(4-methylthiazol-5-yl)benzyl)carbamoyl)pyrrolidin-1-yl)-3,3-dimethyl-1-oxobutan-2-yl)amino)-3-oxopropoxy)ethyl 2-phenylacetate] |  |  |  |  |  |  | ~200 nM |  | 232 ± 47 nM |
| Cc1ncsc1-c1ccc(CNC(=O)[C@@H]2C[C@@H](O)CN2C(=O)[C@@H](NC(=O)CCOCCOCCOCCNC(=O)Cc2ccccc2)C(C)(C)C)cc1 [Compound 17, (2S,4R)-1-((S)-17-(tert-Butyl)-2,15-dioxo-1-phenyl-6,9,12-trioxa-3,16-diazaoctadecan-18-oyl)-4-hydroxy-N-(4-(4-methylthiazol-5-yl)benzyl)pyrrolidine-2-carboxamide] | 133 ± 18% | 2 ×10⁻⁶ cm/s |  | -1.9 |  |  | 138 nM |  |  |
| Cc1ncsc1-c1ccc(CNC(=O)[C@@H]2C[C@@H](O)CN2C(=O)[C@@H](NC(=O)CCCCCNC(=O)CC23CC4CC(CC(C4)C2)C3)C(C)(C)C)cc1 [Compound 5, (2S,4R)-1-((S)-2-(6-(2-(Adamantan-1-yl)acetamido)hexanamido)-3,3-dimethylbutanoyl)-4-hydroxy-N-(4-(4-methylthiazol-5-yl)benzyl)pyrrolidine-2-carboxamide] | 74 ± 8% | 23.7 ×10⁻⁶ cm/s |  | -0.2 | 0.2 ×10⁻⁶ cm/s | 158 |  |  |  |
| Cc1ncsc1-c1ccc(CNC(=O)[C@@H]2C[C@@H](O)CN2C(=O)[C@@H](NC(=O)CCOCCOCCOC(=O)Cc2ccccc2)C(C)(C)C)cc1 [Compound 19, 2-(2-(3-(((S)-1-((2S,4R)-4-Hydroxy-2-((4-(4-methylthiazol-5-yl)benzyl)carbamoyl)pyrrolidin-1-yl)-3,3-dimethyl-1-oxobutan-2-yl)amino)-3-oxopropoxy)ethoxy)ethyl 2-phenylacetate] |  |  |  |  |  |  | 197 ± 27 nM |  |  |
| Cc1ncsc1-c1ccc(CNC(=O)[C@@H]2C[C@@H](O)CN2C(=O)[C@@H](NC(=O)CCOCCOCCNC(=O)Cc2ccccc2)C(C)(C)C)cc1 [Compound 16, (2S,4R)-1-((S)-14-(tert-Butyl)-2,12-dioxo-1-phenyl-6,9-dioxa-3,13-diazapentadecan-15-oyl)-4-hydroxy-N-(4-(4-methylthiazol-5-yl)benzyl)pyrrolidine-2-carboxamide] | 151 ± 30% | 3.3 ×10⁻⁶ cm/s |  | -2.3 |  |  | 172 ± 17 nM |  |  |
| C[C@H]1O[C@@H](O[C@H]2[C@@H](O)C[C@H](O[C@H]3[C@@H](O)C[C@H](O[C@H]4CC[C@@]5(C)[C@H](CC[C@@H]6[C@@H]5C[C@@H](O)[C@]5(C)[C@@H](C7=CC(=O)OC7)CC[C@]65O)C4)O[C@@H]3C)O[C@@H]2C)C[C@H](O)[C@@H]1O [Digoxin, reference compound] |  | 21.5 ×10⁻⁶ cm/s |  |  | 0.8 ×10⁻⁶ cm/s | 26.3 |  |  |  |
| CCCC(=O)NCCCCCC(=O)N[C@H](C(=O)N1C[C@H](O)C[C@H]1C(=O)NCc1ccc(-c2scnc2C)cc1)C(C)(C)C [Compound 2, (2S,4R)-1-((S)-2-(6-Butyramidohexanamido)-3,3-dimethylbutanoyl)-4-hydroxy-N-(4-(4-methylthiazol-5-yl)benzyl)pyrrolidine-2-carboxamide] | 83 ± 5% | 2.9 ×10⁻⁶ cm/s |  | -2.2 | 0.4 ×10⁻⁶ cm/s | 7 |  |  |  |
| Cc1ncsc1-c1ccc(CNC(=O)[C@@H]2C[C@@H](O)CN2C(=O)[C@@H](NC(=O)CCCCCOC(=O)Cc2ccccc2)C(C)(C)C)cc1 [Compound 10, 6-(((S)-1-((2S,4R)-4-Hydroxy-2-((4-(4-methylthiazol-5-yl)benzyl)carbamoyl)pyrrolidin-1-yl)-3,3-dimethyl-1-oxobutan-2-yl)amino)-6-oxohexyl 2-phenylacetate] |  |  |  |  |  |  | 136 nM |  |  |
| CC(C)NCC(O)COc1cccc2ccccc12 (centres unmarked) [Propranolol, reference compound] |  | 41.6 ×10⁻⁶ cm/s |  |  | 49.1 ×10⁻⁶ cm/s | 0.8 |  |  |  |
